Measured values reported in patent US11149008B2, “Sulfamide derivatives and preparation method and use thereof” (HitGen Ltd., priority 2015, dated 2021).

Columns and labels:
[1] = tested on: HepG2 cells; test: Cell growth inhibition measurement (CCK-8), HepG2; type: cell-based; conditions: Homo sapiens, HepG2, 72 h, highest EC50 measured during one or multiple operations, read-out: Inhibition activity against cancer cells, HepG2 (EC50)
Excerpt: (§1) A HepG2 cell strain and an HCT-116 cell strain were purchased from Shanghai Institutes for Biological Sciences; a DMEM high-sugar culture medium and an MEM culture medium were purchased from Hyclone; fetal calf serum was purchased from Gibco; trypsin was purchased from Invitrogen Shanghai; a CCK-8 kit was purchased from Beyotime Institute of Biotechnology; and, the remaining cell culture mediums and other consumables were purchased from Corning China.
(§2) HepG2 cells and HCT-116 cells in the logarithmic growth phase were digested by trypsin. After the counting of uniform cell suspension, the cell density was adjusted as 1500 cells/well by a culture medium containing 10% serum. The cells were re-inoculated to a 96-well cell culture plate, and cultured to a volume of 200 μL at 37° C. in an incubator containing 5% CO2. The cells could be tested after being cultured for 24 h.
(§3) The cells cultured for 24 h were taken out from the incubator. The culture liquid in the well plate was sucked out, and 200 μL of compound solution prepared in the culture medium containing 10% fetal calf serum was added in each well. Five parallel mediums were provided for each concentration, and a DMSO culture medium was used as negative control. The culture mediums were cultured for 72 h at 37° C. in an incubator containing 5% CO2, and CCK-8 detection was performed.
(§4) A serum-free culture medium and CCK-8 solution were prepared, and CCK-8 working solution was prepared at a ratio of 10:1 (this process should be performed in dark place).
(§5) The cells cultured for 72 h were taken out from the incubator. The culture liquid in the well plate was sucked out, and 120 μL of the CCK-8 working solution was added in each well. A well plate without cells was also added with 120 μL of the CCK-8 working solution to serve as blank control. The well plates were cultured for 1 h at 37° C. in an incubator containing 5% CO2 (this process should be performed in dark place).
(§6) The well plates were taken out from the incubator, 100 μL of solution in each well was sucked out and added in a new 96-well plate, and the absorbance was measured at 450 nm (this process should be performed in dark place).
(§7) where Tx is the absorbance of the CCK-8 after the compound acts for 72 h;
(§8) C is the absorbance of the CCK-8 after the negative control wells are cultured for 72 h; and
(§9) B is the absorbance of the CCK-8 in the blank control wells.
(§10) The test results of the compounds prepared according to the embodiments during the measurement are shown in Table 3, wherein the measured highest EC50 of the compounds during one operation or multiple operations is classified according to the following description: […]

[2] = target: HDAC 1 (Homo sapiens, UniProt Q13547); test: Enzyme activity detection of histone deacetylase 1 (fluorogenic substrate deacetylation); type: biochemical; conditions: 0.28 ng/μL HDAC 1, 10 μM substrate; IC50 class
HDAC 1, sequence (Q13547 whole entry, species assumed): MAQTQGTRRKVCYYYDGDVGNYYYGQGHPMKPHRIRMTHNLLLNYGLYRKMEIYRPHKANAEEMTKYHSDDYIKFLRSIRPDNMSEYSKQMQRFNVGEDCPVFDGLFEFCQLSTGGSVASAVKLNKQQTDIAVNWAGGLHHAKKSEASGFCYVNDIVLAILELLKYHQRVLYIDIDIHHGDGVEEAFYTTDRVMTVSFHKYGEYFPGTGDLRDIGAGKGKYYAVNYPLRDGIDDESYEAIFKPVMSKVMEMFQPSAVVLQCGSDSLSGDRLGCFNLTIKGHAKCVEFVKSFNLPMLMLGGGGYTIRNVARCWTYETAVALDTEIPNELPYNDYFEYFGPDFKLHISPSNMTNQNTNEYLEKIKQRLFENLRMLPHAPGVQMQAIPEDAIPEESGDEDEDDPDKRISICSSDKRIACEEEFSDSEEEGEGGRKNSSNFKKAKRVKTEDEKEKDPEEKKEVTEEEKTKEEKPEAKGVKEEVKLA
Excerpt: During the deacetylation detection of a substrate, the HDAC inhibition activity of the compound of the present invention was detected.
C: Enzyme Activity Detection of Histone Deacetylase 1
Acetyl on the substrate was removed by the HDAC 1, so that the substrate was activated, and the developing liquid added subsequently could act on the substrate to release the fluorescent group. The size of the fluorescence signal reflected the activity of the HDAC 1. The IC50 detection method for this enzyme was disclosed in Chuping Xu, Elisabetta Soragni Improved Histone Deacetylase Inhibitors as Therapeutics for the Neurdegenerative Disease Friedreich's Ataxia: A New Synthetic Route. The total reaction system (100 μL/well) contained 0.28 ng/μL of HDAC 1, 10 μM of the substrate and the compound in different concentrations. The fluorescence signal was detected online at Ex/Em=360/460. The inhibition effect of the compound was determined from the obtained data, a concentration response curve was obtained by using the inhibition effect and the concentration of the compound, and the value of IC50 was fitted according to a four-parameter model.
The activities of the compounds prepared in the embodiments against the histone deacetylases 1, 3 and 6 (i.e., HDAC 1, HDAC 3 and HDAC 6) were detected by the above methods, and the test results were shown in Table 2, where the measurements of IC50 of the compounds were classified according to the following description: […]

[3] = tested on: HCT-116 cells; test: Cell growth inhibition measurement (CCK-8), HCT-116; type: cell-based; conditions: Homo sapiens, HCT-116, 72 h, highest EC50 measured during one or multiple operations, read-out: Inhibition activity against cancer cells, HCT-116 (EC50)
Excerpt: as §1, §2, §3, §4, §5, §6, §7, §8, §9, §10

EC50 [1]	IC50 [2]	EC50 [3]	SMILES
< 100 nM			CN1CCN(c2ccc(-c3ccc(S(=O)(=O)N4CC=C(C(=O)NO)CC4)cc3)cc2F)CC1 [Compound 3, N-hydroxyl-1-((3′-fluoro-4′-(4-methylpiperazine-1-yl)-[1,1′-biphenyl]-4-yl)sulfonyl)-1,2,3,6-tetrahydropyridine-4-formamide]
< 100 nM			COCCN1CCN(c2ccc(-c3ccc(S(=O)(=O)N4CC=C(C(=O)NO)CC4)cc3)cc2)CC1 [Compound 4, N-hydroxyl-1-((4′-(4-(2-methoxyethyl)piperazine-1-yl)-[1,1′-biphenyl]-4-yl)sulfonyl)-1,2,3,6-tetrahydropyridine-4-formamide]
< 100 nM			CN1CCN(c2ccc(-c3ccc(S(=O)(=O)N4CC=C(C(=O)NO)CC4)cc3)cn2)CC1 [Compound 5]
< 100 nM	< 100 nM	< 100 nM	CCN1CCN(c2ccc(-c3ccc(S(=O)(=O)N4CC=C(C(=O)NO)CC4)cc3)cc2)CC1 [Compound 6]
< 100 nM		< 100 nM	CN1CCN(c2ccc(-c3ccc(S(=O)(=O)N4CC=C(C(=O)NO)CC4)cc3F)cc2)CC1 [Compound 7, N-hydroxyl-1-((2-fluoro-4′-(4-methylpiperazine-1-yl)-[1,1′-biphenyl]-4-yl)sulfonyl)-1,2,3,6-tetrahydropyridine-4-formamide]
< 100 nM	< 100 nM	< 100 nM	CN(C)Cc1ccc(-c2ccc(S(=O)(=O)N3CC=C(C(=O)NO)CC3)cc2)cc1 [Compound 8, N-hydroxyl-1((4′-((dimethylamino)methyl)-[1, 1′-biphenyl]-4-yl)sulfonyl)-1,2,3,6-tetrahydropyridine-4-formamide]
< 100 nM			CC1CN(c2ccc(-c3ccc(S(=O)(=O)N4CC=C(C(=O)NO)CC4)cc3)cc2)CCN1C (stereo not shown) [Compound 9, N-hydroxyl-1-((4′-(3,4′-dimethylpiperazine-1-yl)-[1,1′-biphenyl]-4-yl)sulfonyl)-1,2,3,6-tetrahydropyridine-4-formamide]
< 100 nM			O=C(NO)C1=CCN(S(=O)(=O)c2ccc(-c3ccc(N4CCNCC4)cc3)cc2)CC1 [Compound 10, N-hydroxyl-1-((4′-(piperazine-1-yl)-[1,1′-biphenyl]-4-yl)sulfonyl)-1,2,3,6-tetrahydropyridine-4-formamide]
< 100 nM			O=C(NO)C1=CCN(S(=O)(=O)c2ccc(-c3ccc(N4CCN(C5CC5)CC4)cc3)cc2)CC1 [Compound 11, N-hydroxyl-1-((4′-(4-cyclopropylpiperazine-1-yl)-[1,1′-biphenyl]-4-yl)sulfonyl)-1,2,3,6-tetrahydropyridine-4-formamide]
< 100 nM	< 100 nM	< 100 nM	CN(C)CCc1ccc(-c2ccc(S(=O)(=O)N3CC=C(C(=O)NO)CC3)cc2)cc1 [Compound 12, N-hydroxyl-1-((4′-(2-(dimethylamino)ethyl)-[1, 1′-biphenyl]-4-yl)sulfonyl)-1,2,3,6-tetrahydropyridine-4-formamide]
< 100 nM	< 100 nM	< 100 nM	CN1CCN(c2ccc(-c3ccc(S(=O)(=O)N4CC=C(C(=O)NO)CC4)cn3)cc2)CC1 [Compound 13, N-hydroxyl-1-((6-(4-(4-methylpiperazine-1-yl)phenyl)pyridine-3-yl)sulfonyl)-1,2,3,6-tetrahydropyridine-4-formamide]
> 100 nM			CN1CCC(n2cc(-c3ccc(S(=O)(=O)N4CC=C(C(=O)NO)CC4)cc3)cn2)CC1 [Compound 14, N-hydroxyl-1-((4-(1-(1-methylpiperidine-4-yl)-1H-pyrazol-4-yl)phenyl)sulfonyl)-1,2,3,6-tetrahydropyridine-4-formamide]
< 100 nM	< 100 nM	< 100 nM	CN1CCN(c2ccc(-c3ccc(S(=O)(=O)N4C=CC(C(=O)NO)CC4)cc3)cc2)CC1 (stereo not shown) [Compound 15, N-hydroxyl-1-((4′-(4-methylpiperazine-1-yl)-[1, 1′-biphenyl]-4-yl)sulfonyl)-1,2,3,4-tetrahydropyridine-4-formamide]
> 100 nM			COCCN1CCN(c2ccc(-c3ccc(S(=O)(=O)N4CC=C(C(=O)NO)CC4)cc3)cn2)CC1 [Compound 17, N-hydroxyl-1-((4-(6-(4-(2-methoxyethyl)piperazine-1-yl)pyridine-3-yl)phenyl)sulfonyl)-1,2,3,6-tetrahydropyridine-4-formamide]
< 100 nM	< 100 nM	< 100 nM	CCN(CC)Cc1ccc(-c2ccc(S(=O)(=O)N3CC=C(C(=O)NO)CC3)cc2)cc1 [Compound 18, N-hydroxyl-1-((4′-((diethylamino)methyl)-[1,1′-biphenyl]-4-yl)sulfonyl)-1,2,3,6-tetrahydropyridine-4-formamide]
< 100 nM		< 100 nM	CN1CCN(Cc2ccc(-c3ccc(S(=O)(=O)N4CC=C(C(=O)NO)CC4)cc3)cc2)CC1 [Compound 20, N-hydroxyl-1-((4′-((4-methylpiperazine-1-yl)methyl)-[1,1′-biphenyl]-4-yl)sulfonyl)-1,2,3,6-tetrahydropyridazole-4-formamide]
< 100 nM		< 100 nM	O=C(NO)C1=CCN(S(=O)(=O)c2ccc(-c3ccc(CN4CCOCC4)cc3)cc2)CC1 [Compound 21, N-hydroxyl-1-((4′-(morpholinylmethyl)-[1,1′-biphenyl]-4-yl)sulfonyl)-1,2,3,6-tetrahydropyridine-4-formamide]
> 100 nM			CN(C)CCNC(=O)c1ccc(-c2ccc(S(=O)(=O)N3CC=C(C(=O)NO)CC3)cc2)cc1 [Compound 22, N-hydroxyl-1-((4′-((2-(dimethylamino)ethyl)aminoformyl)-[1,1′-biphenyl]-4-yl)sulfonyl)-1,2,3,6-tetrahydropyridine-4-formamide]
< 100 nM			CN1CCCN(c2ccc(-c3ccc(S(=O)(=O)N4CC=C(C(=O)NO)CC4)cc3)cn2)CC1 [Compound 24, N-hydroxyl-1-((4-(6-(4-methyl-1,4-diazaheptane-1-yl)pyridine-3-yl)phenyl)sulfonyl)-1,2,3,6-tetrahydropyridine-4-formamide]
